Laboratory results: publication PMC7658267, “Effects of CYP46A1 Inhibition on Long-Term-Depression in Hippocampal Slices ex vivo and 24S-Hydroxycholesterol Levels in Mice in vivo” (Frontiers in Molecular Neuroscience, 2020)
Read-outs that look alike come from different tables or passages of the source.

Key:
Human 5-HT3 = target: T1, Human 5-HT3 (Homo sapiens, UniProt P46098); assay: biochemical; set-up: CEREP off-target binding panel, per cent inhibition at 10 uM, n = 2
T1 construct: gene HTR3A
T1 sequence (P46098 whole entry): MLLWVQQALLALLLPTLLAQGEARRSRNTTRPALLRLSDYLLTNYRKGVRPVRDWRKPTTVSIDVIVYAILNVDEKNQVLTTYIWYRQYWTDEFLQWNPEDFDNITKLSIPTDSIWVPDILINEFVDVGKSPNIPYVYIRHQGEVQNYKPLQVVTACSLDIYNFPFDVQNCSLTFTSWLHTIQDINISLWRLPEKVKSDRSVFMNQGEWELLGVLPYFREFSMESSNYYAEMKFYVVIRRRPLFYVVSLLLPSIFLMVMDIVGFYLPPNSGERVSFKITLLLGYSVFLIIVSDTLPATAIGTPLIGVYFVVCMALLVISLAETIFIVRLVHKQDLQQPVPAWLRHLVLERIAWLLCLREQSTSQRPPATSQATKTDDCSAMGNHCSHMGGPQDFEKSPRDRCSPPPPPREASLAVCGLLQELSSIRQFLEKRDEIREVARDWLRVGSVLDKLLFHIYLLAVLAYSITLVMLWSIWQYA

Human 5-HT5A = target: T2, Human 5-HT5A (Homo sapiens, UniProt P47898); assay: biochemical; set-up: CEREP off-target binding panel, per cent inhibition at 10 uM, n = 2
T2 construct: gene HTR5A
T2 sequence (P47898 whole entry): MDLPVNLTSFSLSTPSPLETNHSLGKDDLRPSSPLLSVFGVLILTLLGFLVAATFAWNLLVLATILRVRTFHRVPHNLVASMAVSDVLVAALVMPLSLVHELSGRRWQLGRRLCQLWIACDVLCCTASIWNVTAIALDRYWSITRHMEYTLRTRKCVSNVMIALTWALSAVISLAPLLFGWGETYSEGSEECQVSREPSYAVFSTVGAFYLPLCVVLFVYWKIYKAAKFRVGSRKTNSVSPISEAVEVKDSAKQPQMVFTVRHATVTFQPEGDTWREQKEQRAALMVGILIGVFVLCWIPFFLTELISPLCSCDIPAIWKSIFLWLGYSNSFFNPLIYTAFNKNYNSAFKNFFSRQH

Human 5-HT7 = target: T3, Human 5-HT7 (Homo sapiens, UniProt P34969); assay: biochemical; set-up: CEREP off-target binding panel, per cent inhibition at 10 uM, n = 2
T3 construct: gene HTR7

Human A3 = target: T4, Human A3 (Homo sapiens, UniProt P0DMS8); assay: biochemical; set-up: CEREP off-target binding panel, per cent inhibition at 10 uM, n = 2
T4 construct: gene ADORA3
T4 sequence (P0DMS8 whole entry): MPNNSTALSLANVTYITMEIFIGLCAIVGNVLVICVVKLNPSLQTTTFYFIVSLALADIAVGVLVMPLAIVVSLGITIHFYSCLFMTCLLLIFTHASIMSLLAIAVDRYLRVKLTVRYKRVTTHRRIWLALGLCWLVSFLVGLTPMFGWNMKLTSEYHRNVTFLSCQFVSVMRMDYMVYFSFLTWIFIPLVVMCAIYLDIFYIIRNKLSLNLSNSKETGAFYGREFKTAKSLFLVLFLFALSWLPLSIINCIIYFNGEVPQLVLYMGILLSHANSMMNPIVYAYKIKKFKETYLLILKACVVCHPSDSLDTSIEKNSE

Human AT1 = target: T5, Human AT1 (Homo sapiens, UniProt P30556); assay: biochemical; set-up: CEREP off-target binding panel, per cent inhibition at 10 uM, n = 2
T5 construct: gene AGTR1

Human CCR1 = Human CCR1 (Homo sapiens, UniProt P32246); assay: biochemical; set-up: CEREP off-target binding panel, per cent inhibition at 10 uM, n = 2
Human D2s = target: T6, Human D2s (Homo sapiens, UniProt P14416); assay: biochemical; set-up: CEREP off-target binding panel, per cent inhibition at 10 uM, n = 2
T6 construct: gene DRD2; D2s
T6 sequence (P14416 whole entry): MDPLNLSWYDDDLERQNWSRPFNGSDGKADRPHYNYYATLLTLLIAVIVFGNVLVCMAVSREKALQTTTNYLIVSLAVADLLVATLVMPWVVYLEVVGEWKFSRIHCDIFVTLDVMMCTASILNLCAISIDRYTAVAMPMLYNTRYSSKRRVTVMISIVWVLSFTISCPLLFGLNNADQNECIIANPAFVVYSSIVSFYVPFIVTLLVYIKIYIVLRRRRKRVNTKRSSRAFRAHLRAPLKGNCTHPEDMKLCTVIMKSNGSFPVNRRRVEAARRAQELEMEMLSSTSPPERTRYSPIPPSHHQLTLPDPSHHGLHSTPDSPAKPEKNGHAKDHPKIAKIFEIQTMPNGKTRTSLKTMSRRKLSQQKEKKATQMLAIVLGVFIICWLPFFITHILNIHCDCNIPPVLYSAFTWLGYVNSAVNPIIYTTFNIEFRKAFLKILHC

Human DOP = target: T7, Human DOP (Homo sapiens, UniProt P41143); assay: biochemical; set-up: CEREP off-target binding panel, per cent inhibition at 10 uM, n = 2
T7 construct: gene OPRD1

Human EP4 = target: T8, Human EP4 (Homo sapiens, UniProt P35408); assay: biochemical; set-up: CEREP off-target binding panel, per cent inhibition at 10 uM, n = 2
T8 construct: gene PTGER4

Human H1 = target: T9, Human H1 (Homo sapiens, UniProt P35367); assay: biochemical; set-up: CEREP off-target binding panel, per cent inhibition at 10 uM, n = 2
T9 construct: gene HRH1

Human H2 = target: T10, Human H2 (Homo sapiens, UniProt P25021); assay: biochemical; set-up: CEREP off-target binding panel, per cent inhibition at 10 uM, n = 2
T10 construct: gene HRH2
T10 sequence (P25021 whole entry): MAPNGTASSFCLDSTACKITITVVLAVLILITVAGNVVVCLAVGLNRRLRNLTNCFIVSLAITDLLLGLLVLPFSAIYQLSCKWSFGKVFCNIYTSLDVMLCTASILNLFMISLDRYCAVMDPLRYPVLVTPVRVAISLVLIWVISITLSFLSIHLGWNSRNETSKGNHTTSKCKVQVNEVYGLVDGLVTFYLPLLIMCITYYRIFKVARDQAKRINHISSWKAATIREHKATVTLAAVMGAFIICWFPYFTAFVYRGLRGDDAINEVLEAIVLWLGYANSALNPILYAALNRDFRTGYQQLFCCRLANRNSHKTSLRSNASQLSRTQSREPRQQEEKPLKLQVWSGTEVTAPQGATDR

Human H3 = target: T11, Human H3 (Homo sapiens, UniProt Q9Y5N1); assay: biochemical; set-up: CEREP off-target binding panel, per cent inhibition at 10 uM, n = 2
T11 construct: gene HRH3
T11 sequence (Q9Y5N1 whole entry): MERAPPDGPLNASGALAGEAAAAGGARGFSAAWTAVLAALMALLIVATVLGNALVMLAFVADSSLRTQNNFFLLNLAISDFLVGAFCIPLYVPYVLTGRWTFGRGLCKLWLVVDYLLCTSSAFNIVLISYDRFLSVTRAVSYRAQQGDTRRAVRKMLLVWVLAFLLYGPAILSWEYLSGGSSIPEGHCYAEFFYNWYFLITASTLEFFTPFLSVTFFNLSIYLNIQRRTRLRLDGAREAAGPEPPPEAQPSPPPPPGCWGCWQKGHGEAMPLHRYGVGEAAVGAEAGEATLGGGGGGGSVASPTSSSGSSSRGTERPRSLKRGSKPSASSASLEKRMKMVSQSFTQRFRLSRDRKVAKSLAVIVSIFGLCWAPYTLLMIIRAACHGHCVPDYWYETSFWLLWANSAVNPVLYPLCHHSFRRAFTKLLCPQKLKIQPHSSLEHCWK

Human M3 = target: T12, Human M3 (Homo sapiens, UniProt P20309); assay: biochemical; set-up: CEREP off-target binding panel, per cent inhibition at 10 uM, n = 2
T12 construct: gene CHRM3

Human MC4 = target: T13, Human MC4 (Homo sapiens, UniProt P32245); assay: biochemical; set-up: CEREP off-target binding panel, per cent inhibition at 10 uM, n = 2
T13 construct: gene MC4R

Human MOP = target: T14, Human MOP (Homo sapiens, UniProt P35372); assay: biochemical; set-up: CEREP off-target binding panel, per cent inhibition at 10 uM, n = 2
T14 construct: gene OPRM1
T14 sequence (P35372 whole entry): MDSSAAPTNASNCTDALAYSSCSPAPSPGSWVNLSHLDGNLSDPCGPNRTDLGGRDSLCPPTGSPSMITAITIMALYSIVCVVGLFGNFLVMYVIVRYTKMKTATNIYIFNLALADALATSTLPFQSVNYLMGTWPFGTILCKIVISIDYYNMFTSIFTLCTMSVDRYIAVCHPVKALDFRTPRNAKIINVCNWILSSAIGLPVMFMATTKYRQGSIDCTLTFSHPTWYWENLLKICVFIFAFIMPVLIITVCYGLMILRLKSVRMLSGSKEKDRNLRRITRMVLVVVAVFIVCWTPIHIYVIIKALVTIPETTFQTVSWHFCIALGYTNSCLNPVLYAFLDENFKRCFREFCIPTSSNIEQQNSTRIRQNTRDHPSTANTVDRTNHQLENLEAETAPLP

Human NK2 = target: T15, Human NK2 (Homo sapiens, UniProt P21452); assay: biochemical; set-up: CEREP off-target binding panel, per cent inhibition at 10 uM, n = 2
T15 construct: gene TACR2
T15 sequence (P21452 whole entry): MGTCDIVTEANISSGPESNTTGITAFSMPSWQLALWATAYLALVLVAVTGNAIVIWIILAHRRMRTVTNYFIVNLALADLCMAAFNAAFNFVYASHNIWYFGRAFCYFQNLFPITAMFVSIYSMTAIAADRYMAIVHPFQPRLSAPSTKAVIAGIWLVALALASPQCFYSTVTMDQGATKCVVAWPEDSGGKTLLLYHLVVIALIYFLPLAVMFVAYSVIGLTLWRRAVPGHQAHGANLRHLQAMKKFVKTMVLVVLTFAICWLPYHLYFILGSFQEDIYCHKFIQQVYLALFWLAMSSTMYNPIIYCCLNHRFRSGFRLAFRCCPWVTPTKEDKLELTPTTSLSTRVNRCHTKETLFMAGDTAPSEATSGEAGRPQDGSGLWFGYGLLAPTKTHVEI

Human NK3 = target: T16, Human NK3 (Homo sapiens, UniProt P29371); assay: biochemical; set-up: CEREP off-target binding panel, per cent inhibition at 10 uM, n = 2
T16 construct: gene TACR3
T16 sequence (P29371 whole entry): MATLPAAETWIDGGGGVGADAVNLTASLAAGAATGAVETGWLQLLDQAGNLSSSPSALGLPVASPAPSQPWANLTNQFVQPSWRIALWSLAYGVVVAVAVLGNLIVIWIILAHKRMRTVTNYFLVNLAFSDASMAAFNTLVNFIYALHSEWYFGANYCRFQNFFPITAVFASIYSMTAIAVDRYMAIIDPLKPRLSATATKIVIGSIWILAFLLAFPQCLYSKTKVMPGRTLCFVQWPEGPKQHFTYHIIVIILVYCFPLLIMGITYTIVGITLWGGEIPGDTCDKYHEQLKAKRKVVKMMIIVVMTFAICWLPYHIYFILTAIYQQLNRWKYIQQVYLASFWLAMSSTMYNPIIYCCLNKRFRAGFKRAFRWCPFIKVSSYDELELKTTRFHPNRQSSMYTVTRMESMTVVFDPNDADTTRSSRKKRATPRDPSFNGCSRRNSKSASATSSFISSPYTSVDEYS

Human NOP = target: T17, Human NOP (Homo sapiens, UniProt P41146); assay: biochemical; set-up: CEREP off-target binding panel, per cent inhibition at 10 uM, n = 2
T17 construct: gene OPRL1

Human PR = target: T18, Human PR (Homo sapiens, UniProt P06401); assay: biochemical; set-up: CEREP off-target binding panel, per cent inhibition at 10 uM, n = 2
T18 construct: gene PGR

Human PXR = target: T19, Human PXR (Homo sapiens, UniProt O75469); assay: in vitro; set-up: CEREP off-target binding panel, per cent inhibition at 10 uM, n = 2
T19 construct: gene NR1I2

Human Y1 = target: T20, Human Y1 (Homo sapiens, UniProt P25929); assay: biochemical; set-up: CEREP off-target binding panel, per cent inhibition at 10 uM, n = 2
T20 construct: gene NPY1R

Human Y2 = target: T21, Human Y2 (Homo sapiens, UniProt P49146); assay: biochemical; set-up: CEREP off-target binding panel, per cent inhibition at 10 uM, n = 2
T21 construct: gene NPY2R
T21 sequence (P49146 whole entry): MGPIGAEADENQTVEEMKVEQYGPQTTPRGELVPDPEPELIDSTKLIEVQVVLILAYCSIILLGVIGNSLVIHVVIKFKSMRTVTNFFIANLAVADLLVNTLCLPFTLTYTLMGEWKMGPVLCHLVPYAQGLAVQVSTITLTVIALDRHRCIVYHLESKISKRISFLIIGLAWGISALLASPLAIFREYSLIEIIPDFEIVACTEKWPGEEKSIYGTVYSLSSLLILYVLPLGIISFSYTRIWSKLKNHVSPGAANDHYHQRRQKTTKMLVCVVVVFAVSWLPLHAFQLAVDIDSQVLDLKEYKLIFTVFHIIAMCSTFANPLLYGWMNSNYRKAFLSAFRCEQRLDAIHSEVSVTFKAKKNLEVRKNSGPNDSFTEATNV

Human β2 = target: T22, Human β2 (Homo sapiens, UniProt P07550); assay: biochemical; set-up: CEREP off-target binding panel, per cent inhibition at 10 uM, n = 2
T22 construct: gene ADRB2
T22 sequence (P07550 whole entry): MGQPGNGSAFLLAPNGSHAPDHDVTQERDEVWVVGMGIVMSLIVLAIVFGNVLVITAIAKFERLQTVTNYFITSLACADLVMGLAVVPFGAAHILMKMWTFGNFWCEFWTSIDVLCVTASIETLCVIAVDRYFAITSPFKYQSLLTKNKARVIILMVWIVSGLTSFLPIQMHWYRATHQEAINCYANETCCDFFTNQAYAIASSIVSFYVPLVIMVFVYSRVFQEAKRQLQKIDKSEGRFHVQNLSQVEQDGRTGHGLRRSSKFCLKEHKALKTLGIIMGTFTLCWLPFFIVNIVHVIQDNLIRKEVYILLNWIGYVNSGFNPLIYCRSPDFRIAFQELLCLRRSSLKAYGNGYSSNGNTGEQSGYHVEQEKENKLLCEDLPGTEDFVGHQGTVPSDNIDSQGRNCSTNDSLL

CYP2B6 = CYP2B6 (Homo sapiens, UniProt P20813); assay: biochemical; set-up: CYP off-target inhibition panel
Text: These examples have been of interest as tool compounds in commercial development (indicated by patent numbers in Figure 3). […] Initially, [compound left out] was utilized as substrate in this reaction owing to its improved solubility over cholesterol, enabling better run to run reproducibility ([Mast et al., 2003]).

CYP2C9 = CYP2C9 (Homo sapiens, UniProt P11712); assay: biochemical; set-up: CYP off-target inhibition panel
Chain of CYP2C9 (P11712 whole entry): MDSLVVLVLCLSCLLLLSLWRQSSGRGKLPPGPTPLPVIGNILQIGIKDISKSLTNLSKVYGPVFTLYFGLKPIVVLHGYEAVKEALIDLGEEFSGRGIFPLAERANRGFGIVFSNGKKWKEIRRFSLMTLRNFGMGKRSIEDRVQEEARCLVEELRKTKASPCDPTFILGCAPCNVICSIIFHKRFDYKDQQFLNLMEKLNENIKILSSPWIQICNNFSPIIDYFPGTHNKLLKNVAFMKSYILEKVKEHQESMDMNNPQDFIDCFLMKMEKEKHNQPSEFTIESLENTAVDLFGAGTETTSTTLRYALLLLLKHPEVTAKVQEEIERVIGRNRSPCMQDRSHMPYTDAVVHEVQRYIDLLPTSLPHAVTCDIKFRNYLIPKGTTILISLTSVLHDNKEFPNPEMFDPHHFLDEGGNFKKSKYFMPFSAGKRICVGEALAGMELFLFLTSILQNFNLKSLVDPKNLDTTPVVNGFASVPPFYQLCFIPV

| SMILES | inhibition at 10 µM (Human 5-HT3) | inhibition at 10 µM (Human 5-HT5A) | inhibition at 10 µM (Human 5-HT7) | inhibition at 10 µM (Human A3) | inhibition at 10 µM (Human AT1) | inhibition at 10 µM (Human CCR1) | inhibition at 10 µM (Human D2s) | inhibition at 10 µM (Human DOP) | inhibition at 10 µM (Human EP4) | inhibition at 10 µM (Human H1) | inhibition at 10 µM (Human H2) | inhibition at 10 µM (Human H3) | inhibition at 10 µM (Human M3) | inhibition at 10 µM (Human MC4) | inhibition at 10 µM (Human MOP) | inhibition at 10 µM (Human NK2) | inhibition at 10 µM (Human NK3) | inhibition at 10 µM (Human NOP) | inhibition at 10 µM (Human PR) | inhibition at 10 µM (Human PXR) | also measured |
| --- | --- | --- | --- | --- | --- | --- | --- | --- | --- | --- | --- | --- | --- | --- | --- | --- | --- | --- | --- | --- | --- |
| O=C(c1cnc2c(-c3cnco3)cc(C(F)(F)F)cn12)N1C2CCC1COC2 [compound 1, (3-oxa-8-azabicyclo[3.2.1]octan-8-yl)(8-(oxazol-5-yl)-6-(trifluoromethyl)imidazo[1,2-a]pyridin-3-yl)methanone] | 11% | -12.5% | 5.4% | 23.3% | -3.7% | 2.6% | -15.2% | -6.2% | -22.4% | -12.9% | -6.2% | -3.3% | -9.1% | 4.5% | -0.7% | -7.9% | 4.1% | 1.4% | 2% | 4.8% | inhibition at 10 µM (Human Y1): -2.9%; inhibition at 10 µM (Human Y2): -3.7%; inhibition at 10 µM (Human β2): -8.1%; IC50 (CYP2B6): > 50 µM; IC50 (CYP2C9): > 50 µM |
| O=C(c1cccnc1-c1ccncn1)N1CCC(O)(Cc2ccc(F)cc2)CC1 [compound 2, (4-(4-fluorobenzyl)-4-hydroxypiperidin-1-yl)(2-(pyrimidin-4-yl)pyridin-3-yl)methanone] | 0.8% | 9.6% | 4.2% | 5.4% | -3.2% | -1.7% | -15.4% | -5.8% | 1.8% | -13.3% | -5.4% | -14.7% | 7.3% | 9.8% | 2.5% | -1.4% | 1.1% | 0.6% | -4.7% | 8.8% | inhibition at 10 µM (Human Y1): -16.3%; inhibition at 10 µM (Human Y2): 6.8%; inhibition at 10 µM (Human β2): -2%; IC50 (CYP2B6; read-out: compound 2): > 50 µM; IC50 (CYP2C9; read-out: compound 2): > 50 µM |
